Measured values published in US20250282715A1, “SOLID STATE FORMS OF MIRDAMETINIB AND PROCESS FOR PREPARATION THEREOF” (Assia Chemical Industries Ltd., priority 2022, published 2025).

Legend:
Assay type in all cases: physicochemical
[1] = Thermal stability (oven heating, XRPD analysis); details: heated in an oven at 100° C. for 30 minutes
Protocol: (§1) A sample, after being powdered in a mortar and pestle, is applied directly on a silicon plate holder. The X-ray powder diffraction pattern was measured with Philips X'Pert PRO X-ray powder diffractometer, equipped with Cu irradiation source=1.54184 Å (Ångström), X'Celerator (2.022° 20) detector. Scanning parameters: angle range: 3-40 deg., step size 0.0167, time per step 37 s, continuous scan.
Samples of Mirdametinib oxalic acid co-crystal Form A (100 mg) and Form IV were heated in an oven at 100° C. for 30 minutes.

[2] = Stability to compression (2 tons, XRPD analysis); details: pressure of 2 tons for 2 minutes, hydraulic press
Protocol: as §1
A sample of Mirdametinib oxalic acid co-crystal Form A was subjected to a pressure of 2 tons for 2 minutes (Atlas® Autopress hydraulic press, set to 2 tons).

[3] = Hygroscopicity (water absorption at up to 90% RH); details: about 25° C.

| Structure (SMILES) | XRPD after heating [1] | Stability to compression: XRPD analysis after mechanical stress [2] | XRPD after heating ([1]; listed as Mirdametinib oxalic acid co-crystal Form A) | Hygroscopicity / water absorption [3] |
| --- | --- | --- | --- | --- |
| O=C(NOC[C@H](O)CO)c1ccc(F)c(F)c1Nc1ccc(I)cc1F [Mirdametinib form IV, N-[(2R)-2,3-dihydroxypropoxyl]-3,4-difluoro-2-[(2-fluoro-4-iodophenyl)amino]benzamide, reference compound] | form IV + form I | – | – | – |
| O=C(NOC[C@H](O)CO)c1ccc(F)c(F)c1Nc1ccc(I)cc1F.O=C(O)C(=O)O | Form A | resistant to amorphization | no conversion to other polymorph forms | little or no water absorption |
